Each compound was assayed against human BCL6 BTB domain (Trx-6×His-BCL6) / BCOR-AF633 peptide (Homo sapiens (Human), UniProt P41182) (assay: HTRF assay). Conditions: 1 nM Trx-6×His-BCL6, 300 nM BCOR-AF633 peptide, 2 hours incubation.
Assay type: binding
Method: The % inhibition at each concentration was calculated by normalising FRET ratio to the appropriate high (DMSO with all reagents) and low (DMSO without BCL6) controls.

Compared with `Cn1c(=O)c2c(c3cc(Nc4ccnc(Cl)c4C#N)ccc31)NC1(CCOC1)CCO2` (stereo not drawn) [Example 1o, 2-chloro-4-((7′-methyl-6′-oxo-3′,4,4′,5,6′,7′-hexahydro-1′H,2H-spiro[furan-3,2′-[1,4]oxazepino[2,3-c]quinolin]-10′-yl)amino)nicotinonitrile], `Cn1c(=O)c2c(c3cc(Nc4ccnc(Cl)c4C#N)ccc31)NC(C(F)F)CCO2` (stereo not drawn) [Example 1p, 2-chloro-4-((2-(difluoromethyl)-7-methyl-6-oxo-1,2,3,4,6,7-hexahydro-[1,4]oxazepino[2,3-c]quinolin-10-yl)amino)nicotinonitrile] is lower in “HTRF avg pIC50 (1 nM)” value: 6.14 for the first, 5.67 for the second.

First: CCC1COc2c(c3cc(Nc4ccnc(Cl)c4C#N)ccc3n(C)c2=O)N1 (stereo not drawn) [Example 1l, 2-chloro-4-((2-ethyl-6-methyl-5-oxo-2,3,5,6-tetrahydro-1H-[1,4]oxazino[2,3-c]quinolin-9-yl)amino)nicotinonitrile]
Second: CC1COc2c(c3cc(Nc4ccnc(Cl)c4C#N)ccc3n(C)c2=O)N1 (stereo not drawn) [Example 1k, 2-chloro-4-((2,6-dimethyl-5-oxo-2,3,5,6-tetrahydro-1H-[1,4]oxazino[2,3-c]quinolin-9-yl)amino)nicotinonitrile]
The “HTRF avg pIC50 (1 nM)” value of the first is higher: 6.22 for the first, 5.91 for the second.

`Cn1c(=O)c2c(c3cc(Nc4nc(N5C6CCC5COC6)ncc4F)ccc31)N[C@@H](C1CC1)C(F)(F)CO2` [Example 13j, (S)-10-((2-(3-oxa-8-azabicyclo[3.2.1]octan-8-yl)-5-fluoropyrimidin-4-yl)amino)-2-cyclopropyl-3,3-difluoro-7-methyl-1,2,3,4-tetrahydro-[1,4]oxazepino[2,3-c]quinolin-6(7H)-one] and `Cn1c(=O)c2c(c3cc(Nc4nc(N5CCc6ncnc(O)c6C5)ncc4Cl)ccc31)N[C@@H](C1CC1)C(F)(F)CO2` [Example 13a, (S)-10-((5-chloro-2-(4-hydroxy-7,8-dihydropyrido[4,3-d]pyrimidin-6(5H)-yl)pyrimidin-4-yl)amino)-2-cyclopropyl-3,3-difluoro-7-methyl-1,2,3,4-tetrahydro-[1,4]oxazepino[2,3-c]quinolin-6(7H)-one] are within 0.2 log units of each other in “HTRF avg pIC50 (1 nM)” value: 8.60 for the first, 8.68 for the second.

Going from `C[C@@H]1CN(c2ncc(Cl)c(Nc3ccc4c(c3)c3c(c(=O)n4C)OCC[C@H](C4CC4)N3)n2)C[C@H](C)[C@H]1F` [Example 12e, (R)-10-((5-chloro-2-((3S,4R,5R)-4-fluoro-3,5-dimethylpiperidin-1-yl)pyrimidin-4-yl)amino)-2-cyclopropyl-7-methyl-1,2,3,4-tetrahydro-[1,4]oxazepino[2,3-c]quinolin-6(7H)-one] to `COCC1(C)CCOc2c(c3cc(Nc4nc(-n5ccc(C(F)(F)F)n5)ncc4Cl)ccc3n(C)c2=O)N1` (stereo not drawn) [Example 5b, 10-((5-chloro-2-(3-(trifluoromethyl)-1H-pyrazol-1-yl)pyrimidin-4-yl)amino)-2-(methoxymethyl)-2,7-dimethyl-1,2,3,4-tetrahydro-[1,4]oxazepino[2,3-c]quinolin-6(7H)-one], the “HTRF avg pIC50 (1 nM)” value falls from 6.93 to 6.09.

First: C[C@H]1COC(=O)c2c(c3cc(Nc4nc(N5CCC(C(=O)N(C)C)CC5)ncc4Cl)ccc3n(C)c2=O)N1 [Example 8d, (S)-1-(5-chloro-4-((2,7-dimethyl-5,6-dioxo-1,2,3,5,6,7-hexahydro-[1,4]oxazepino[6,5-c]quinolin-10-yl)amino)pyrimidin-2-yl)-N,N-dimethylpiperidine-4-carboxamide]
Second: (R)-10-((5-chloro-2-((S)-4,4-difluoro-3- (hydroxymethyl)piperidin-1-yl)pyrimidin-4-yl)amino)-2- cyclopropyl-7-methyl-1,2,3,4-tetrahydro- [1,4]oxazepino[2,3-c]quinolin-6(7H)-one or (R)-10-((5-chloro- 2-((R)-4,4-difluoro-3-(hydroxymethyl)piperidin-1-yl)pyrimidin- 4-yl)amino)-2-cyclopropyl-7-methyl-1,2,3,4-tetrahydro- [1,4]oxazepino[2,3-c]quinolin-6(7H)-one [Example 15c]
The “HTRF avg pIC50 (1 nM)” value of the first is lower: 6.78 for the first, 7.55 for the second.

Compared with `C[C@@H]1C[C@H](C)CN(c2ncc(Cl)c(Nc3ccc4c(c3)c3c(c(=O)n4C)C(=O)OC[C@H](C4CC4)N3)n2)C1` [Example 8l, (S)-10-((5-chloro-2-((3R,5S)-3,5-dimethylpiperidin-1-yl)pyrimidin-4-yl)amino)-2-cyclopropyl-7-methyl-2,3-dihydro-[1,4]oxazepino[6,5-c]quinoline-5,6(1H,7H)-dione], `CNCCn1c(=O)c2c(c3cc(Nc4nc(N5C[C@@H](C)C(F)(F)[C@@H](C)C5)ncc4Cl)ccc31)N[C@@H](C1CC1)CCO2` [Example 17a, (R)-10-((5-chloro-2-((3S,5R)-4,4-difluoro-3,5-dimethylpiperidin-1-yl)pyrimidin-4-yl)amino)-2-cyclopropyl-7-(2-(methylamino)ethyl)-1,2,3,4-tetrahydro-[1,4]oxazepino[2,3-c]quinolin-6(7H)-one] is higher in “HTRF avg pIC50 (1 nM)” value: 6.36 for the first, 7.15 for the second.

First: C[C@H]1C[C@@H](O)CN(c2ncc(Cl)c(Nc3ccc4c(c3)c3c(c(=O)n4C)OCC(F)(F)[C@H](C4CC4)N3)n2)C1 (single isomer, unassigned) [Example 13d, (S)-10-((5-chloro-2-((3R,5S)-3-hydroxy-5-methylpiperidin-1-yl)pyrimidin-4-yl)amino)-2-cyclopropyl-3,3-difluoro-7-methyl-1,2,3,4-tetrahydro-[1,4]oxazepino[2,3-c]quinolin-6(7H)-one or (S)-10-((5-chloro-2-((3S,5R)-3-hydroxy-5-methylpiperidin-1-yl)pyrimidin-4-yl)amino)-2-cyclopropyl-3,3-difluoro-7-methyl-1,2,3,4-tetrahydro-[1,4]oxazepino[2,3-c]quinolin-6(7H)-one]
Second: CC1Nc2c(c(=O)n(C)c3ccc(Nc4ccnc(Cl)c4C#N)cc23)OCC12CC2 (stereo not drawn) [Example 1i, 2-chloro-4-((2′,7′-dimethyl-6′-oxo-1′,2′,6′,7′-tetrahydro-4′H-spiro[cyclopropane-1,3^′-[1,4]oxazepino[2,3-c]quinolin]-10^′-yl)amino)nicotinonitrile]
The “HTRF avg pIC50 (1 nM)” value of the first is higher: 8.70 for the first, 5.97 for the second.

Going from `Cn1c(=O)c2c(c3cc(Nc4nc(N5CCN(CCC#N)CC5)ncc4Cl)ccc31)N[C@@H](C1CC1)C(F)(F)CO2` [Example 13f, (S)-3-(4-(5-chloro-4-((2-cyclopropyl-3,3-difluoro-7-methyl-6-oxo-1,2,3,4,6,7-hexahydro-[1,4]oxazepino[2,3-c]quinolin-10-yl)amino)pyrimidin-2-yl)piperazin-1-yl)propanenitrile] to `CN1CC2CC(C1)N2c1ncc(Cl)c(Nc2ccc3c(c2)c2c(c(=O)n3C)OCC(F)(F)[C@H](C3CC3)N2)n1` [Example 13h, (2S)-10-((5-chloro-2-(3-methyl-3,6-diazabicyclo[3.1.1]heptan-6-yl)pyrimidin-4-yl)amino)-2-cyclopropyl-3,3-difluoro-7-methyl-1,2,3,4-tetrahydro-[1,4]oxazepino[2,3-c]quinolin-6(7H)-one: formic acid (1:1)], the “HTRF avg pIC50 (1 nM)” value falls from 8.66 to 8.43.

Going from `Cn1c(=O)c2c(c3cc(Nc4ccnc(Cl)c4C#N)ccc31)NC(C1CC1)COC2=O` (stereo not drawn) [Example 6c, 2-chloro-4-((2-cyclopropyl-7-methyl-5,6-dioxo-1,2,3,5,6,7-hexahydro-[1,4]oxazepino[6,5-c]quinolin-10-yl)amino)nicotinonitrile] to `CC1CSc2c(c3cc(Nc4ccnc(Cl)c4C#N)ccc3n(C)c2=O)N1` (stereo not drawn) [Example 1t, 2-chloro-4-((2,6-dimethyl-5-oxo-2,3,5,6-tetrahydro-1H-[1,4]thiazino[2,3-c]quinolin-9-yl)amino)nicotinonitrile], the “HTRF avg pIC50 (1 nM)” value falls from 6.71 to 6.00.

Same assay, conditions: HTRF avg pIC50 (1 nM), 1 nM Trx-6×His-BCL6, 300 nM BCOR-AF633 peptide, 2 hours incubation

`CC1Nc2c(c(=O)n(C)c3ccc(Nc4ccnc(Cl)c4C#N)cc23)C(=O)OC1C` (stereo not drawn) [Example 6d, 2-chloro-4-((2,3,7-trimethyl-5,6-dioxo-1,2,3,5,6,7-hexahydro-[1,4]oxazepino[6,5-c]quinolin-10-yl)amino)nicotinonitrile] and `Cn1c(=O)c2c(c3cc(Nc4ccnc(Cl)c4C#N)ccc31)N[C@@H](C1CC1)COC2=O` [Example 6b, (S)-2-chloro-4-((2-cyclopropyl-7-methyl-5,6-dioxo-1,2,3,5,6,7-hexahydro-[1,4]oxazepino[6,5-c]quinolin-10-yl)amino)nicotinonitrile] are within 1.5-fold of each other in IC50: 214 nM for the first, 166 nM for the second.

First: Cn1c(=O)c2c(c3cc(Nc4cc(C(=O)O)nc(Cl)c4C#N)ccc31)N[C@@H](C1CC1)CCO2 [Example 2b, (R)-6-chloro-5-cyano-4-((2-cyclopropyl-7-methyl-6-oxo-1,2,3,4,6,7-hexahydro-[1,4]oxazepino[2,3-c]quinolin-10-yl)amino)picolinic acid]
Second: CC1Nc2c(c(=O)n(C)c3ccc(Nc4nc(N5C[C@H](C)C[C@H](C)C5)ncc4Cl)cc23)C(=O)OC1C (mixture of isomers) [Example 8q, rac-(2S,3R)-10-((5-chloro-2-((3S,5R)-3,5-dimethylpiperidin-1-yl)pyrimidin-4-yl)amino)-2,3,7-trimethyl-2,3-dihydro-[1,4]oxazepino[6,5-c]quinoline-5,6(1H,7H)-dione or rac-(2S,3S)-10-((5-chloro-2-((3S,5R)-3,5-dimethylpiperidin-1-yl)pyrimidin-4-yl)amino)-2,3,7-trimethyl-2,3-dihydro-[1,4]oxazepino[6,5-c]quinoline-5,6(1H,7H)-dione]
The IC50 of the first is 54-fold lower: 8.91 nM for the first, 479 nM for the second.

Same assay, conditions: read-out: IC50 in the HTRF assay

`CC1CC(C)(C)Oc2c(c3cc(Nc4ccnc(Cl)c4C#N)ccc3n(C)c2=O)N1` (stereo not drawn) [2-chloro-4-((2,4,4,7-tetramethyl-6-oxo-1,2,3,4,6,7-hexahydro-[1,4]oxazepino[2,3-c]quinolin-10-yl)amino)nicotinonitrile] and `CC(=O)N1CC2CC(C1)CN(c1ncc(Cl)c(Nc3ccc4c(c3)c3c(c(=O)n4C)C(=O)OC[C@H](C)N3)n1)C2` [(2S)-10-((2-(7-acetyl-3,7-diazabicyclo[3.3.1]nonan-3-yl)-5-chloropyrimidin-4-yl)amino)-2,7-dimethyl-2,3-dihydro-[1,4]oxazepino[6,5-c]quinoline-5,6(1H,7H)-dione] cannot be ordered by IC50: greater than 2500 nM for the first, greater than 2500 nM for the second.

Reference: patent publication US20230287003A1, “BCL6 INHIBITORS” (Cancer Research Technology Limited, priority 2018, published 2023)
